Data set [1] concerns MRSA 3393. The format is cell-based, Staphylococcus aureus. The settings on record: 3393. The source says:
(§1) Bacteria were cultivated in Luria-Bertani (LB) broth.

Data set [2] has as its system MRSA ATCC 43300. It is filed as cell-based, Staphylococcus aureus. The settings on record: ATCC 43300.
Excerpt: as §1

Data set [3] relates to MRSA USA 300. The format is cell-based, Staphylococcus aureus.
Excerpt: as §1

Data set [4] has as its system MRSA. It is filed as cell-based, Staphylococcus aureus.
Excerpt: as §1

Data set [5] concerns E. coli ATCC 25922. The format is cell-based, Escherichia coli.
Excerpt: as §1

The test system of data set [6] is E. coli S. It is filed as cell-based, Escherichia coli.
Excerpt: as §1

In data set [7] the test system is A. baumannii 1318. The format is cell-based, Acinetobacter baumannii.
Excerpt: as §1

For data set [8], the system named is A. baumannii 1337. The format is cell-based, Acinetobacter baumannii.
Excerpt: as §1

The subject of data set [9] is K. pneumoniae 3026. The format is cell-based, Klebsiella pneumoniae.
Excerpt: as §1

Data set [10] relates to K. pneumoniae ATCC 700603. The format is cell-based, Klebsiella pneumoniae.
Excerpt: as §1

A short description of data set [11]: MTT cytotoxicity assay. It is filed as cell-based, human. The following applies: human. On the procedure:
(§2) To determine the cytotoxicity of the peptides, we used the MTT (3-(4,5)-dimethylthiahiazo (-z-y1)-3,5-di-phenytetrazoliumromide) dye reduction assay against HEK293T cells. In brief, the 100 μL of cells in 96-well plate were incubated for 24 h at 37 °C, 5% CO2, and then peptide solutions (concentrations ranging from 100 to 0.39 μM) were added and further incubated for 72 h. MTT solution (5 mg/mL) was added and further incubated for 4 h. After incubation, the precipitated MTT formazan crystal was dissolved by addition of dimethyl sulfoxide (DMSO). […]
(Tetrazolium dyes change colour on reduction, which living cells bring about.)

Data set [12] concerns sheep red blood cells. The experiment in a line: Hemolysis assay. The settings on record: red cells of sheep, 1 h. On the procedure:
To evaluate the hemolysis effects of peptides, red blood hemolysis was performed as described with minimum modifications. Sterile defibrated sheep blood was purchased from Guangzhou Hongquan Biotechnology Co., LTD. Blood cells were adjusted to 2 × 10^9 cells/mL in phosphate-buffered saline (PBS, pH 7.4). In total, 98 μL sheep red blood cell suspension was incubated with 2 μL of peptides at different concentrations ranging from 3.13 to 100 µM. After incubation for 1 h at 37 °C, the cells were centrifuged and the absorbance of the supernatant was measured at 450 nm. The value for “zero hemolysis” was determined using sterile PBS, while 100% hemolysis was established using 1.5% (v/v) Triton X-100. Hemolysis of testing sample was calculated as the percentage of Triton X-100-induced hemolysis.

The test system of data set [13] is Gram-negative bacterial strains. The format is cell-based.
Excerpt: as §1

Data set [14] deals with HEK293T cells. The experiment in a line: MTT cytotoxicity assay. The format is cell-based, human. On the procedure: as §2
The subject of data set [15] is all tested bacterial strains. The settings on record: range over all strains.
Excerpt: The bacterial strains used in this study included the Gram-positive bacteria methicillin resistant Staphylococcus aureus (MRSA) (MRSA ATCC 43300 and 2 clinically isolated strains presented as MRSA USA 300 and MRSA 3393), Gram-negative bacteria Escherichia coli (E. coli ATCC 25922, and 1 clinically isolated strain presented as E. coli S), Klebsiella pneumoniae (K. pneumoniae ATCC 700603, and 1 clinically isolated strain presented as K. pneumoniae 3026), and Acinetobacter baumannii (2 clinically isolated strains presented as A. baumannii 1318 and A. baumannii 1337). Bacteria were cultivated in Luria-Bertani (LB) broth.
The Clinical and Laboratory Standards Institute (CLSI)-defined broth microdilution testing method (M07, 11th edition, 2018) was used to determine MICs for peptides. Briefly, the concentrations of the peptides and ciprofloxacin in the assay wells ranged from 100 μM to 0.01 μM as a 11-point dose response plated as a 2-fold dilution series across the wells of the plate in duplicate for each independent biological replicate. Bacterial susceptibility assays were performed in Cation-Adjusted Mueller Hinton Broth (CAMHB), and using a final cell density of 5 × 10^6 CFU/mL for bacteria[36]. Final assay volumes were 100 μL per well with MICs determined by measuring absorbance at 595 nm with a microplate reader following 18–20 h incubation at 37 °C. […]
[16] abbreviates: HEK293T cells, OD450, cytotoxicity (Fig 2a), replicates.

Molecules are shown by their SMILES. In brackets after ≈: the same amount, converted by molar mass. Where two headings read alike, the source gives them in different places. Residues, ends and D or L forms follow the SMILES beside them.

The values below come from paper PMC10657444, “Design and evaluation of tadpole-like conformational antimicrobial peptides” (Communications Biology, 2023).

Regarding `CC[C@H](C)[C@H](NC(=O)[C@H](CCCNC(=N)N)NC(=O)[C@H](CCCNC(=N)N)NC(=O)[C@H](CC(C)C)NC(=O)[C@H](Cc1ccccc1)NC(=O)[C@H](CCCNC(=N)N)NC(=O)[C@@H](N)CCCNC(=N)N)C(=O)N[C@@H](Cc1ccccc1)C(=O)N[C@@H](Cc1ccccc1)C(=O)N[C@@H](Cc1ccccc1)C(=O)N[C@@H](Cc1ccccc1)C(N)=O` [HT3] (H-RRFLRRIFFFF-NH2; N-terminus assumed), the “MIC Gram+ MRSA 3393” value in data set [1] was 3.13 µM (≈ 5.02 µg/mL). Also, the “MIC Gram+ MRSA ATCC 43300” value in [2] came out at 1.57 µM (≈ 2.52 µg/mL). Also, the “MIC Gram+ MRSA USA 300” value in [3] worked out at 3.13 µM (≈ 5.02 µg/mL). In addition, in data set [4], the “MICs against Gram-positive bacterial strains” value lay within 1.57 to 3.13 µM. In [5], the “MIC Gram- E. coli ATCC 25922” value was 6.25 µM (≈ 10 µg/mL). The “MIC Gram- E. coli S” value in [6] came to 25 µM (≈ 40.1 µg/mL). Further, the “MIC Gram- A. b 1318” value in data set [7] turned out to be 6.25 µM (≈ 10 µg/mL). In addition, the “MIC Gram- A. b 1337” value in data set [8] was determined as 6.25 µM (≈ 10 µg/mL). In data set [9], the “MIC Gram- K. p 3026” value came out at 6.25 µM (≈ 10 µg/mL). Moreover, the “MIC Gram- K. p ATCC 700603” value in data set [10] is 6.25 µM (≈ 10 µg/mL). Also, half-maximal inhibition in data set [11] (IC50 at 72 h) was put at 49 µM. Moreover, in data set [11] (HEK293T cells, HEK293T, 0.78 µM, read-out: OD450, cytotoxicity (Fig 2a), replicates), the viability at 72 h, 0.78 µM was found to be 95.8%. Further, in data set [11] (HEK293T cells, HEK293T, 12.5 µM, read-out: OD450, cytotoxicity (Fig 2a), replicates), the viability at 72 h, 12.5 µM came to 94.4%. In data set [11] (setting [16]), the viability at 72 h, 0.39 µM was 94%; the viability at 72 h, 0.78 µM amounted to 98.7%; the viability at 72 h, 1.57 µM came out at 96.4%; the viability at 72 h, 3.13 µM amounted to 97.8%. In data set [11] (setting [16]), this molecule showed a viability at 72 h, 6.25 µM of 94.9%; a viability at 72 h, 12.5 µM of 99.5%; a viability at 72 h, 25 µM of 91.4%; a viability at 72 h, 50 µM of 59.2%. In [11] (setting [16]), this molecule had a viability at 72 h, 100 µM of 24.2%. The “HC10 (concentration inducing 10% hemolysis)” value in data set [12] is above 100.0 µM. The “MICs against Gram-negative bacterial strains, such as A. baumannii and Klebsiella pneumoniae” value in data set [13] stood at 6.25 µM.
Turning to `CC[C@H](C)[C@H](NC(=O)[C@H](CCCNC(=N)N)NC(=O)[C@H](CCCNC(=N)N)NC(=O)[C@H](CC(C)C)NC(=O)[C@H](Cc1ccccc1)NC(=O)[C@@H](N)CCCNC(=N)N)C(=O)N[C@@H](Cc1ccccc1)C(=O)N[C@@H](CCCNC(=N)N)C(=O)N[C@@H](Cc1ccccc1)C(=O)N[C@@H](Cc1ccccc1)C(=O)N[C@@H](Cc1ccccc1)C(N)=O` [HT4] (H-RFLRRIFRFFF-NH2), in data set [1], the “MIC Gram+ MRSA 3393” value was found to be 3.13 µM (≈ 5.02 µg/mL). Besides, in data set [2], the “MIC Gram+ MRSA ATCC 43300” value is 3.13 µM (≈ 5.02 µg/mL). Moreover, in data set [3], the “MIC Gram+ MRSA USA 300” value was 3.13 µM (≈ 5.02 µg/mL). Besides, the “MIC Gram- E. coli ATCC 25922” value in data set [5] stood at 6.25 µM (≈ 10 µg/mL). Moreover, in data set [6], the “MIC Gram- E. coli S” value was determined as 12.5 µM (≈ 20 µg/mL). In data set [7], the “MIC Gram- A. b 1318” value was found to be 3.13 µM (≈ 5.02 µg/mL). The “MIC Gram- A. b 1337” value in [8] was 3.13 µM (≈ 5.02 µg/mL). Also, in data set [9], the “MIC Gram- K. p 3026” value was 12.5 µM (≈ 20 µg/mL). Also, the “MIC Gram- K. p ATCC 700603” value in data set [10] came out at 3.13 µM (≈ 5.02 µg/mL). Also, half-maximal inhibition in data set [11] (IC50 at 72 h) was put at 2.6 µM. In [11] (setting [16]), this molecule returned a viability at 72 h, 0.39 µM of 85.8%; a viability at 72 h, 0.78 µM of 80%; a viability at 72 h, 1.57 µM of 70.9%; a viability at 72 h, 3.13 µM of 34.7%. In [11] (setting [16]), this molecule came in with a viability at 72 h, 6.25 µM of 22.3%; a viability at 72 h, 12.5 µM of 13.4%; a viability at 72 h, 25 µM of 5.83%. Also, the “toxicity / cytotoxicity against HEK293T cells (in words)” value in data set [14] is “high toxicity”. In addition, in [12], the “HC10 (concentration inducing 10% hemolysis)” value is 12.5 µM. In addition, the “MICs against all tested bacterial strains” value in data set [15] was 3.13 to 12.5 µM.
